From the supplement of paper PMC10307832

Columns and labels:
Experiment in all cases: relative viability (nuclei count vs DMSO), 5 days (fraction); higher = more cells survive
[1] = compound: CC1=C(C=CC(=C1)[N+](=O)[O-])NS(=O)(=O)C2=C(C=CC(=C2)Cl)Cl [FH535] + CS(=O)(=O)CCNCc1ccc(-c2ccc3ncnc(Nc4ccc(OCc5cccc(F)c5)c(Cl)c4)c3c2)o1 [Lapatinib] (partner 2 µM)
Procedure, shortened: (§1)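 Relative viability was taken as the ratio of nuclei in treated wells to nuclei in vehicle wells. Lung cancer cell lines in 1536-well plates received compounds by pin tool one day after seeding, either one drug alone or a fixed anchor-drug dose plus five library-drug doses (not always all listed) in √10 steps. Nuclei were counted on 4× images after 5 days of treatment, and values are medians of duplicate plates.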

[2] = compound: CC1=C(C=CC(=C1)[N+](=O)[O-])NS(=O)(=O)C2=C(C=CC(=C2)Cl)Cl [FH535] + NC(=O)Nc1cc(-c2cccc(F)c2)sc1C(=O)N[C@H]1CCCNC1 [AZD7762] (partner 0.2 µM)
Procedure, shortened: as §1

[3] = compound: CC1=C(C=CC(=C1)[N+](=O)[O-])NS(=O)(=O)C2=C(C=CC(=C2)Cl)Cl [FH535] + Cc1nc(Nc2ncc(C(=O)Nc3c(C)cccc3Cl)s2)cc(N2CCN(CCO)CC2)n1 [Dasatinib] (partner 0.075 µM)
Procedure, shortened: as §1

[4] = compound: CC1=C(C=CC(=C1)[N+](=O)[O-])NS(=O)(=O)C2=C(C=CC(=C2)Cl)Cl [FH535] + Cc1nc(NC(=O)N2CCC[C@H]2C(N)=O)sc1-c1ccnc(C(C)(C)C(F)(F)F)c1 [Alpelisib] (partner 2 µM)
Procedure, shortened: as §1

[5] = compound: CC1=C(C=CC(=C1)[N+](=O)[O-])NS(=O)(=O)C2=C(C=CC(=C2)Cl)Cl [FH535] + N=C(N)NC(=N)NCCc1ccccc1 [Phenformin] (partner 250 µM)
Procedure, shortened: as §1

| Cell Line | relative viability ([1]; first compound 0.04 µM) | relative viability ([1]; first compound 0.1265 µM) | relative viability ([1]; first compound 0.4 µM) | relative viability ([1]; first compound 1.265 µM) | relative viability ([2]; first compound 0.04 µM) | relative viability ([2]; first compound 0.1265 µM) | relative viability ([2]; first compound 0.4 µM) | relative viability ([2]; first compound 1.265 µM) | relative viability ([3]; first compound 0.04 µM) | relative viability ([3]; first compound 0.1265 µM) | relative viability ([3]; first compound 0.4 µM) | relative viability ([3]; first compound 1.265 µM) | relative viability ([4]; first compound 0.04 µM) | relative viability ([4]; first compound 0.1265 µM) | relative viability ([4]; first compound 0.4 µM) | relative viability ([4]; first compound 1.265 µM) | relative viability ([5]; first compound 0.04 µM) | relative viability ([5]; first compound 0.1265 µM) | relative viability ([5]; first compound 0.4 µM) | relative viability ([5]; first compound 1.265 µM) |
| --- | --- | --- | --- | --- | --- | --- | --- | --- | --- | --- | --- | --- | --- | --- | --- | --- | --- | --- | --- | --- |
| HCC-366 | 1 | 1.11 | 0.999 | 0.913 | 0.244 | 0.289 | 0.307 | 0.247 | 0.571 | 0.713 | 0.632 | 0.487 | 0.35 | 0.485 | 0.478 | 0.349 | 0.607 | 0.522 | 0.48 | 0.41 |
| HCC-827 | 0.202 | 0.195 | 0.213 | 0.163 | 0.203 | 0.205 | 0.278 | 0.221 | 0.35 | 0.291 | 0.273 | 0.364 | 0.954 | 0.972 | 0.926 | 0.446 | 0.407 | 0.387 | 0.383 | 0.313 |
| HOP-62 | 0.886 | 0.87 | 1 | 1.01 | 0.473 | 0.66 | 0.416 | 0.55 | 0.604 | 0.571 | 0.533 | 0.57 | 0.931 | 0.948 | 0.778 | 0.694 | 0.682 | 0.668 | 0.552 | 0.401 |
| IA-LM | 0.796 | 0.778 | 0.66 | 0.588 | – | – | – | – | – | – | – | – | 0.827 | 0.691 | 0.642 | 0.688 | – | – | – | – |
| LC-2-ad | 0.711 | 0.97 | 0.92 | 0.697 | 0.809 | 0.828 | 0.744 | 0.697 | 0.417 | 0.571 | 0.437 | 0.409 | 0.489 | 0.963 | 0.898 | 0.618 | 0.482 | 0.58 | 0.425 | 0.368 |
| LCLC-103H | – | – | – | – | 0.737 | 0.734 | 0.744 | 0.67 | 0.441 | 0.369 | 0.353 | 0.384 | 0.906 | 0.935 | 1.01 | 0.927 | 0.326 | 0.286 | 0.255 | 0.262 |
| NCI-H441 | – | – | – | – | 1.09 | 1.32 | 1.09 | 1.02 | 0.436 | 0.518 | 0.527 | 0.472 | 0.529 | 0.638 | 0.686 | 0.605 | 0.316 | 0.829 | 0.709 | 0.512 |
| NCI-H520 | 0.848 | 0.768 | 0.818 | 0.761 | – | – | – | – | 0.203 | 0.193 | 0.2 | 0.19 | 0.825 | 0.931 | 0.952 | 0.799 | 0.36 | 0.611 | 0.55 | 0.429 |
| NCI-H522 | – | – | – | – | 0.717 | 0.947 | 0.688 | 0.864 | 0.882 | 0.862 | 0.827 | 0.979 | – | – | – | – | 0.591 | 0.575 | 0.621 | 0.62 |
| NCI-H661 | 0.452 | 0.456 | 0.461 | 0.344 | – | – | – | – | 0.704 | 0.994 | 0.615 | 0.475 | 0.607 | 0.55 | 0.518 | 0.374 | 0.302 | 0.294 | 0.276 | 0.234 |
| NCI-H1650 | 0.642 | 0.73 | 0.74 | 0.784 | – | – | – | – | 0.281 | 0.299 | 0.3 | 0.297 | – | – | – | – | 0.365 | 0.405 | 0.33 | 0.201 |
| NCI-H1703 | 1.12 | 1.12 | 1.11 | 0.662 | 0.127 | 0.136 | 0.109 | 0.132 | – | – | – | – | 0.403 | 0.362 | 0.327 | 0.269 | – | – | – | – |
| NCI-H2009 | 0.82 | 0.859 | 0.853 | 0.656 | – | – | – | – | 0.256 | 0.307 | 0.269 | 0.277 | 1.15 | 1.16 | 1.17 | 0.959 | 0.486 | 0.447 | 0.402 | 0.179 |
| NCI-H2023 | 0.671 | 0.846 | 0.919 | 0.738 | – | – | – | – | 0.601 | 0.616 | 0.49 | 0.459 | 0.659 | 0.629 | 0.686 | 0.604 | 0.384 | 0.375 | 0.314 | 0.191 |
| NCI-H2228 | 0.574 | 1.15 | 1.2 | 0.927 | – | – | – | – | 0.49 | 0.502 | 0.552 | 0.402 | 0.687 | 0.669 | 0.911 | 0.63 | 0.241 | 0.377 | 0.288 | 0.224 |
| SK-LU-1 | 0.759 | 0.778 | 0.609 | 0.362 | – | – | – | – | 0.191 | 0.192 | 0.182 | 0.194 | 0.913 | 1.1 | 0.949 | 0.616 | 0.563 | 0.622 | 0.491 | 0.305 |
| SK-MES-1 | 0.493 | 0.448 | 0.422 | 0.412 | – | – | – | – | 0.407 | 0.47 | 0.343 | 0.292 | 0.865 | 0.941 | 0.855 | 0.881 | 0.71 | 0.614 | 0.553 | 0.385 |
| SW 900 | – | – | – | – | 0.42 | 0.599 | 0.403 | 0.542 | 0.481 | 0.748 | 0.507 | 0.63 | – | – | – | – | 0.569 | 0.667 | 0.48 | 0.236 |
| SW 1573 | 1 | 1.19 | 1.18 | 0.98 | – | – | – | – | 0.42 | 0.414 | 0.344 | 0.454 | 0.726 | 0.693 | 0.623 | 0.689 | 0.387 | 0.372 | 0.307 | 0.163 |
| UMC-11 | 0.858 | 0.994 | 0.885 | 0.765 | – | – | – | – | 0.446 | 0.454 | 0.416 | 0.422 | 0.939 | 1.13 | 0.96 | 0.857 | 0.289 | 0.378 | 0.28 | 0.211 |
